Experimental data as given in the supplement of paper PMC10307832.

Legend:
Test in all cases: relative viability (nuclei count vs DMSO), 5 days (fraction); higher = more cells survive
[1] = compound: CCOc1cc2ncc(C#N)c(Nc3ccc(OCc4ccccn4)c(Cl)c3)c2cc1NC(=O)/C=C/CN(C)C [Neratinib] + CC(=O)c1c(C)c2cnc(Nc3ccc(N4CCNCC4)cn3)nc2n(C2CCCC2)c1=O [Palbociclib] (partner 0.5 µM)
How it was run: (§1)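 A single step with final 0.05% Triton X-100, 1% formaldehyde and 1 ug/ml Hoechst fixed the cells and stained nuclei 5 days after treatment. Lung cancer cell lines in 1536-well plates had been treated by pin tool the day after seeding with one drug alone or a fixed anchor-drug dose plus five library-drug doses (not always all listed) in √10 steps, and nuclei were counted on 4× images. Relative viability is the ratio of nuclei in treated wells to nuclei in vehicle wells, taken as the median of duplicate plates.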

[2] = compound: CCOc1cc2ncc(C#N)c(Nc3ccc(OCc4ccccn4)c(Cl)c3)c2cc1NC(=O)/C=C/CN(C)C [Neratinib] + CC(C)C[C@H](NC(=O)[C@H](Cc1ccccc1)NC(=O)c1cnccn1)B(O)O [Bortezomib] (partner 0.002 µM)
How it was run: as §1

[3] = compound: CCOc1cc2ncc(C#N)c(Nc3ccc(OCc4ccccn4)c(Cl)c3)c2cc1NC(=O)/C=C/CN(C)C [Neratinib] + COc1cc2c(Oc3ccc(NC(=O)C4(C(=O)Nc5ccc(F)cc5)CC4)cc3F)ccnc2cc1OCCCN1CCOCC1 [Foretinib] (partner 0.25 µM)
How it was run: as §1

[4] = compound: CCOc1cc2ncc(C#N)c(Nc3ccc(OCc4ccccn4)c(Cl)c3)c2cc1NC(=O)/C=C/CN(C)C [Neratinib] + CS(=O)(=O)N1CCN(Cc2cc3nc(-c4cccc5[nH]ncc45)nc(N4CCOCC4)c3s2)CC1 [Pictilisib] (partner 1 µM)
How it was run: as §1

Cell Line | relative viability ([1]; first compound 0.01 µM) | relative viability ([1]; first compound 0.03162 µM) | relative viability ([1]; first compound 0.1 µM) | relative viability ([1]; first compound 0.3162 µM) | relative viability ([1]; first compound 1 µM) | relative viability ([2]; first compound 0.01 µM) | relative viability ([2]; first compound 0.03162 µM) | relative viability ([2]; first compound 0.1 µM) | relative viability ([2]; first compound 0.3162 µM) | relative viability ([2]; first compound 1 µM) | relative viability ([3]; first compound 0.01 µM) | relative viability ([3]; first compound 0.03162 µM) | relative viability ([3]; first compound 0.1 µM) | relative viability ([3]; first compound 0.3162 µM) | relative viability ([3]; first compound 1 µM) | relative viability ([4]; first compound 0.01 µM) | relative viability ([4]; first compound 0.03162 µM) | relative viability ([4]; first compound 0.1 µM) | relative viability ([4]; first compound 0.3162 µM) | relative viability ([4]; first compound 1 µM)
ChaGo-K-1 | 0.997 | 0.986 | 0.93 | 0.956 | 0.867 | 1.06 | 1.04 | 0.873 | 0.745 | 0.912 | 0.945 | 1.07 | 0.884 | 0.888 | 0.718 | 0.668 | 0.781 | 0.689 | 0.639 | 0.614
EKVX | 0.384 | 0.448 | 0.243 | 0.132 | 0.152 | 1.02 | 1.18 | 0.894 | 0.271 | 0.184 | 0.697 | 0.952 | 0.578 | 0.567 | 0.193 | 0.476 | 0.387 | 0.32 | 0.163 | 0.129
EMC-BAC-2 | 0.538 | 0.526 | 0.492 | 0.532 | 0.41 | 1.25 | 1.13 | 0.979 | 0.99 | 0.889 | 1.19 | 0.99 | 0.669 | – | 0.54 | 0.584 | 0.558 | 0.443 | 0.468 | 0.371
EPLC-272H | 0.357 | 0.309 | 0.224 | 0.295 | 0.292 | 0.841 | 0.994 | 0.881 | 0.775 | 0.65 | – | 0.431 | 0.45 | 0.419 | 0.194 | 0.376 | 0.387 | 0.316 | 0.338 | 0.307
H3255 | 0.304 | 0.324 | 0.305 | 0.256 | 0.201 | 0.776 | 0.97 | 0.556 | 0.225 | 0.233 | 0.976 | 0.425 | 0.716 | 0.334 | 0.17 | 0.453 | 0.469 | 0.301 | 0.117 | 0.109
HARA | 0.24 | 0.275 | 0.237 | 0.195 | 0.227 | 1.26 | 1.15 | 0.97 | 0.974 | 0.79 | 0.973 | 0.91 | – | 0.496 | 0.375 | 0.494 | 0.294 | 0.362 | 0.262 | 0.336
HCC-15 | 0.764 | 0.828 | 0.738 | 0.692 | 0.511 | 0.948 | 1.16 | 0.932 | 0.956 | 0.882 | 1.07 | 1.21 | – | 0.885 | 0.66 | 0.824 | 0.809 | 0.712 | 0.781 | 0.618
HCC-44 | 1.02 | 0.969 | – | 0.926 | 0.966 | 0.997 | 0.954 | 0.78 | 0.931 | 0.952 | – | – | – | – | – | 0.852 | 0.561 | 0.655 | 0.642 | 0.643
HCC-78 | 0.467 | 0.479 | 0.409 | 0.424 | 0.463 | 0.478 | 0.446 | 0.432 | 0.43 | 0.301 | 0.561 | 0.555 | 0.499 | 0.344 | 0.365 | 0.184 | 0.233 | 0.215 | 0.215 | 0.182
